Experimental data published in patent US10508120B2, “TYK2 inhibitors and uses thereof” (Nimbus Lakshmi, Inc., priority 2017, dated 2019).
pIC50, pKd: −log10 of the molar value. One block for each compound: values may come before it.

Columns and labels:
[1] = molecular target: JAK2 kinase domain (JH1) (Homo sapiens (Human), UniProt O60674); assay: JAK2 Radioactive Kinase Assay; assay type: biochemical; details: compound at 10 μM; ATP 10 μM; read-out: JAK2 JH1% Inhibition @ 10 μM
Procedure, shortened: (§1)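 Compounds were tested at a single concentration of 10 μM in a radiometric kinase format against each isolated kinase domain. Activity is reported as percent inhibition at that concentration.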

[2] = molecular target: Tyk2/JAK2 (heterodimeric complex) (Homo sapiens (Human), UniProt P29597); assay: IL-12 Induced pSTAT4 in Human PBMC; assay type: cell-based; details: 1.7 ng/mL IL-12
Tyk2/JAK2 (heterodimeric complex), sequence (P29597 whole entry, other chains not shown): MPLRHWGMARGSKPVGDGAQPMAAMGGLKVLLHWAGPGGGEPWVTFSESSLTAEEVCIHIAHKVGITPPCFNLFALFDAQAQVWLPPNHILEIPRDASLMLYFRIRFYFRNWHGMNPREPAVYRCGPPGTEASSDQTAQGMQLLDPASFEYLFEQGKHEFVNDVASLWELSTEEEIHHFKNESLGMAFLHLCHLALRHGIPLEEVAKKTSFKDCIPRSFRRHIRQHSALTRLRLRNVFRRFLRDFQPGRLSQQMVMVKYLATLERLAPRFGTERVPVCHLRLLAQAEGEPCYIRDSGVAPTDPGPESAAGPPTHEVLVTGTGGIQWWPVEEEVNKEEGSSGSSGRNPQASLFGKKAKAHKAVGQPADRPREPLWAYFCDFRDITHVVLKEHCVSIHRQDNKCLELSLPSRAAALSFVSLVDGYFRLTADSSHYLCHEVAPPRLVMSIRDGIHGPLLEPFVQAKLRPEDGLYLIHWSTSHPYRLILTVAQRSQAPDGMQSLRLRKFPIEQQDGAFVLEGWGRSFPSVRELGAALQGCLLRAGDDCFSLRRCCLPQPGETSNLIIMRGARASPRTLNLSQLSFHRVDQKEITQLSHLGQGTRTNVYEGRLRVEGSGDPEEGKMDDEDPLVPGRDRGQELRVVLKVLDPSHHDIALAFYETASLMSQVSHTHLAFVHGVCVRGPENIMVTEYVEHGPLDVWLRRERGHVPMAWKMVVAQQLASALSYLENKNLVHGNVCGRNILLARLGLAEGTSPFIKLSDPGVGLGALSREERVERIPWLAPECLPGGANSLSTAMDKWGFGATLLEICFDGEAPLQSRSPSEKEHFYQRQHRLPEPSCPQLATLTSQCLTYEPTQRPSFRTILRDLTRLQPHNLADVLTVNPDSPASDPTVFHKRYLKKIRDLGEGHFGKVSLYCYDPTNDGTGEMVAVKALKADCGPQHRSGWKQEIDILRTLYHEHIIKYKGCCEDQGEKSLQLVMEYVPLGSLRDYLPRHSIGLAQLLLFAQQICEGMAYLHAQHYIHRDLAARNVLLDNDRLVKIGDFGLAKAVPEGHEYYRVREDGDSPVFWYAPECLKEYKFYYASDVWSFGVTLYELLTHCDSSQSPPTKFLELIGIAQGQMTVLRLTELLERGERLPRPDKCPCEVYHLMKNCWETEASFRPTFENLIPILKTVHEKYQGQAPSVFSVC
Text: The IL-12 Induced pSTAT4 assay evaluates the inhibition of IL-12 induced STAT4 phophorylation mediated by Tyk2/JAK2 (heterodimeric complex).

[3] = molecular target: human TYK2 (JH2domain-pseudokinase) (Homo sapiens (Human), UniProt P29597); assay: TYK2 JH2 Domain Binding Assay (KINOMEscan)
human TYK2 (JH2domain-pseudokinase), sequence (P29597 556-888): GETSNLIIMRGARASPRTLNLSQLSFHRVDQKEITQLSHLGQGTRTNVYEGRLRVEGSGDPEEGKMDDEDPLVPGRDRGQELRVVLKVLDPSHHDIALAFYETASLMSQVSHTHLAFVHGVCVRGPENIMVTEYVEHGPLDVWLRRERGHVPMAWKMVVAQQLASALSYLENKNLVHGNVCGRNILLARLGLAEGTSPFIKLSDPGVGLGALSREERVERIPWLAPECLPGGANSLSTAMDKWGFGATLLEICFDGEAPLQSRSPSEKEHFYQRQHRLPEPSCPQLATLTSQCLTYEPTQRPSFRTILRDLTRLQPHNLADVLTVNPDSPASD
Procedure, shortened: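 Kds, run in duplicate, came from Hill fits (slope fixed at −1) of an 11-point 3-fold dilution series starting at 30,000 nM. Bead-retained TYK2 JH2 (aa G556–D888)–NFkB DBD fusion, DNA-tagged and expressed in HEK293 cells, was read by qPCR after 1 h room-temperature binding in 0.9% DMSO.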

[4] = molecular target: JAK2/JAK2 homdimeric complex (Homo sapiens (Human), UniProt O60674); assay: GM-CSF Induced pSTAT5 in Human PBMC; assay type: cell-based; details: GM-CSF 5 ng/mL for 20 minutes, pSTAT5 by MSD, read-out: PBMC_GMCSF_pSTAT5 IC50
JAK2/JAK2 homdimeric complex, sequence (O60674 whole entry, the tested form may be a part): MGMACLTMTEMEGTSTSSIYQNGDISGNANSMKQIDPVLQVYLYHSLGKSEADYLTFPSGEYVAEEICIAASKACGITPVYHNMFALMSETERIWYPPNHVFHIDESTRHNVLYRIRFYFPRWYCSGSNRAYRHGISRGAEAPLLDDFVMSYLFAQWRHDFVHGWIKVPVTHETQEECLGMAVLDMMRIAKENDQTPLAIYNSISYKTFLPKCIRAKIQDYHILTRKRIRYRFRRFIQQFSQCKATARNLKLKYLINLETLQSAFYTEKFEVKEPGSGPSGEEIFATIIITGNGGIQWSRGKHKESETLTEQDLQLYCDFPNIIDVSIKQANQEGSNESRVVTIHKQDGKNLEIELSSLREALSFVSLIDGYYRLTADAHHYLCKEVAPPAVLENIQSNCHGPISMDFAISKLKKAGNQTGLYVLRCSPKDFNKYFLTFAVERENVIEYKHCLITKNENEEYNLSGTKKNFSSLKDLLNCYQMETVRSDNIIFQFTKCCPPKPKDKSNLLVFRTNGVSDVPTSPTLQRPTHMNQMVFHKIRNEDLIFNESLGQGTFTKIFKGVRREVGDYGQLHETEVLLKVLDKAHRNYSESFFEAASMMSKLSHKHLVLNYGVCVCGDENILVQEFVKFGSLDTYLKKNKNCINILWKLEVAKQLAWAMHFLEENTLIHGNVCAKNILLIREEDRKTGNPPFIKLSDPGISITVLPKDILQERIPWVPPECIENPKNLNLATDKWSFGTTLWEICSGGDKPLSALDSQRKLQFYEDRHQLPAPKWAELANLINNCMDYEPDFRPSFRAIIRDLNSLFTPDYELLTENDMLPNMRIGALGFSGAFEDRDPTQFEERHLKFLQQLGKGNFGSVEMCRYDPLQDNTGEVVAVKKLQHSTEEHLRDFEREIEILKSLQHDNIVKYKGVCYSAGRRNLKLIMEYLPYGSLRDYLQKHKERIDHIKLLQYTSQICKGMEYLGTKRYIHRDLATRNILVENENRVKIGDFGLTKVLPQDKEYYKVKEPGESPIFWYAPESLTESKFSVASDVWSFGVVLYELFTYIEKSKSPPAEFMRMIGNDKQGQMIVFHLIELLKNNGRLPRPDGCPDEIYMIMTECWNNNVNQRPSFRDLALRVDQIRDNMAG
JAK2/JAK2 homdimeric complex, sequence (P32927 17-897 partner): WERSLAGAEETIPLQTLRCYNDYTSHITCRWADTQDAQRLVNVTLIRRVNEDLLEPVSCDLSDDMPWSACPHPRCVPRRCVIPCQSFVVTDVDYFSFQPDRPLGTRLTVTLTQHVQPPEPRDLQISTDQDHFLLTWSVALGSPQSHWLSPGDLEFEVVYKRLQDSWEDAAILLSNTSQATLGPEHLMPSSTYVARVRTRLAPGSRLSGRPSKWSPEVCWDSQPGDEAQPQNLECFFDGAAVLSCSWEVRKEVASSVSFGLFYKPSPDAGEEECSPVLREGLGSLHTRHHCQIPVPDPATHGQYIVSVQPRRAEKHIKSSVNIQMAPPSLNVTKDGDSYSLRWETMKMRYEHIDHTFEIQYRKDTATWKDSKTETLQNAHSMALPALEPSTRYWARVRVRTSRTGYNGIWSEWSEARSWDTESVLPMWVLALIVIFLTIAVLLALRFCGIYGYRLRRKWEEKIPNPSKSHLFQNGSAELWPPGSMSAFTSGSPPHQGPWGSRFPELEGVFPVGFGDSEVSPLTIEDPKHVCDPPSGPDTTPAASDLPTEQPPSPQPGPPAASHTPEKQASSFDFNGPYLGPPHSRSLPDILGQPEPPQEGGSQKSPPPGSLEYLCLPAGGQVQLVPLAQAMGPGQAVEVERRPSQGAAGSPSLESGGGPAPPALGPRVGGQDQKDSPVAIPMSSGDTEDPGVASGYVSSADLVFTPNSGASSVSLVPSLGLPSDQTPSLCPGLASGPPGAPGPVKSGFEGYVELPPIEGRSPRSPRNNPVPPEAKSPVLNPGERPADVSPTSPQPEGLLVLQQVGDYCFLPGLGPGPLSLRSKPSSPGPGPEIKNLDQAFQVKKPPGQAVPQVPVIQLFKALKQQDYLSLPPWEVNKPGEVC

[5] = molecular target: Tyk2 kinase domain (DH1) (Homo sapiens (Human), UniProt P29597); assay: Tyk2 Radioactive Kinase Assay; assay type: biochemical; details: compound at 10 μM; ATP 10 μM; read-out: Tyk2 JH1% Inhibition @ 10 μM
Tyk2 kinase domain (DH1), sequence (P29597 897-1176): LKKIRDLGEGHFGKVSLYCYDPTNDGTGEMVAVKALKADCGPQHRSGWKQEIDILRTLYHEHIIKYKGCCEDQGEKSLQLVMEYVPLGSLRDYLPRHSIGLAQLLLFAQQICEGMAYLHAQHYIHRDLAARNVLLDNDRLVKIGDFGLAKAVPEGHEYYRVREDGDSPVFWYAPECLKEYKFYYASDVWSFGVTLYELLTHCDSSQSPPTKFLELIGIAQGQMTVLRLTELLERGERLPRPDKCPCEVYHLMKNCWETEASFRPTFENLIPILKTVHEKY
Procedure, shortened: as §1

JAK2 kinase domain (JH1), sequence (O60674 849-1124): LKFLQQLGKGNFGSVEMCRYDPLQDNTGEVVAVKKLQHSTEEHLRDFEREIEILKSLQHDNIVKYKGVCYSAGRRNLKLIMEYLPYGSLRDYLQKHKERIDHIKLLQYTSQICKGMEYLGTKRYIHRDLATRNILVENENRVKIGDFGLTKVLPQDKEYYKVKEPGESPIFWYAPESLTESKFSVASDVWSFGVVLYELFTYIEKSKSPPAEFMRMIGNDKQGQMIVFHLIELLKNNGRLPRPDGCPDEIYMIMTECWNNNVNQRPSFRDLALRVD

inhibition at 10 µM [1]: < 50%
pIC50 [2]: > 7.00
pKd [3]: 9.00 to 9.70
pIC50 [4]: < 5.60
inhibition at 10 µM [5]: < 50%
SMILES: CNc1cc(-c2cn(C(C)C)c3ncccc23)nc2c(C(N)=O)cnn12 [I-222, 5-(1-isopropyl-1H-pyrrolo[2,3-b]pyridin-3-yl)-7-(methylamino)pyrazolo[1,5-a]pyrimidine-3-carboxamide]

inhibition at 10 µM [1]: < 50%
pIC50 [2]: > 7.00
pKd [3]: > 9.70
pIC50 [4]: < 4.90
inhibition at 10 µM [5]: < 50%
SMILES: CNc1cc(-c2cn(C(C)C)c3ncccc23)nc2c(C(=O)NC3CC3)cnn12 [I-223]

inhibition at 10 µM [1]: < 50%
pIC50 [2]: > 7.00
pKd [3]: > 9.70
pIC50 [4]: < 4.30
inhibition at 10 µM [5]: < 50%
SMILES: CNc1cc(-c2cn(C(C)C)c3ncccc23)nc2c(C(=O)NC3CCC3)cnn12 [I-224]

inhibition at 10 µM [1]: < 50%
pIC50 [2]: > 7.00
pKd [3]: > 9.70
pIC50 [4]: < 4.30
inhibition at 10 µM [5]: < 50%
SMILES: CNc1cc(Nc2cc(C)cn(-c3cnn(C)c3)c2=O)nc2c(C(=O)NC3CC3)cnn12 [I-233]

inhibition at 10 µM [1]: < 50%
pIC50 [2]: > 7.00
pKd [3]: > 9.70
pIC50 [4]: < 5.60
inhibition at 10 µM [5]: < 50%
SMILES: CNc1cc(Nc2cc(C)cn(-c3cnn(C)c3)c2=O)nc2c(C(=O)NC3CCC3)cnn12 [I-234]

inhibition at 10 µM [1]: < 50%
pIC50 [2]: > 7.00
pKd [3]: > 9.70
pIC50 [4]: < 5.60
inhibition at 10 µM [5]: < 50%
SMILES: CNc1cc(Nc2cc(C)cn(-c3cnn(C)c3)c2=O)nc2c(C(=O)N[C@H]3C[C@H]3F)cnn12 [I-235]

inhibition at 10 µM [1]: < 50%
pIC50 [2]: > 7.00
pKd [3]: > 9.70
pIC50 [4]: < 5.60
inhibition at 10 µM [5]: < 50%
SMILES: CNc1cc(Nc2cccc(N3CCOC3=O)n2)nc2c(C(=O)N[C@H]3C[C@H]3F)cnn12 [I-236]

Further lines, the compound ahead of its results:

SMILES: CNc1cc(-c2c[nH]c3c(C4CCOCC4)cc(Cl)cc23)nc2c(C(N)=O)cnn12 [I-190]
inhibition at 10 µM [1]: < 50%
pIC50 [2]: > 7.00
pKd [3]: > 9.70
pIC50 [4]: < 4.90
inhibition at 10 µM [5]: < 50%

SMILES: CNc1cc(Nc2cccn(C3CCN(CC(F)F)CC3)c2=O)nc2c(C(=O)NC3CCC3)cnn12 [I-192]
inhibition at 10 µM [1]: < 50%
pIC50 [2]: > 7.00
pKd [3]: > 9.70
pIC50 [4]: < 4.90
inhibition at 10 µM [5]: < 50%

SMILES: CNc1cc(Nc2cc(F)cn(-c3ccccn3)c2=O)nc2c(C(=O)NC3CCC3)cnn12 [I-193]
inhibition at 10 µM [1]: < 50%
pIC50 [2]: > 7.00
pKd [3]: 9.00 to 9.70
pIC50 [4]: < 4.90
inhibition at 10 µM [5]: < 50%

SMILES: CNc1cc(Nc2cc(F)cn(-c3ccccn3)c2=O)nc2c(C(=O)N[C@H]3C[C@H]3F)cnn12 [I-194]
inhibition at 10 µM [1]: < 50%
pIC50 [2]: > 7.00
pKd [3]: > 9.70
pIC50 [4]: < 4.90
inhibition at 10 µM [5]: < 50%

SMILES: CNc1cc(Nc2cc(F)cn(-c3ccc(C)nn3)c2=O)nc2c(C(=O)N[C@H]3C[C@H]3F)cnn12 [I-198]
inhibition at 10 µM [1]: < 50%
pIC50 [2]: > 7.00
pKd [3]: > 9.70
pIC50 [4]: < 5.60
inhibition at 10 µM [5]: < 50%

SMILES: CNc1cc(Nc2cc(F)cnc2OC(C)C)nc2c(C(=O)N[C@H]3C[C@H]3F)cnn12 [I-211]
inhibition at 10 µM [1]: < 50%
pIC50 [2]: 6.30 to 7.00
pKd [3]: 9.00 to 9.70
pIC50 [4]: < 4.30
inhibition at 10 µM [5]: < 50%

SMILES: CNc1cc(Nc2cccnc2OC2CC2)nc2c(C(=O)NC3CC3)cnn12 [I-215, 5-((2-cyclopropoxypyridin-3-yl)amino)-N-cyclopropyl-7-(methylamino) pyrazolo[1,5-a]pyrimidine-3-carboxamide]
inhibition at 10 µM [1]: < 50%
pIC50 [2]: > 7.00
pKd [3]: > 9.70
pIC50 [4]: < 4.30
inhibition at 10 µM [5]: < 50%

SMILES: CNc1cc(Nc2cccnc2OC2CC2)nc2c(C(=O)NC3CCC3)cnn12 [I-216]
inhibition at 10 µM [1]: < 50%
pIC50 [2]: > 7.00
pKd [3]: > 9.70
pIC50 [4]: < 4.90
inhibition at 10 µM [5]: < 50%

SMILES: CNc1cc(Nc2cccnc2OC2CC2)nc2c(C(=O)N[C@H]3C[C@H]3F)cnn12 [I-217]
inhibition at 10 µM [1]: < 50%
pIC50 [2]: > 7.00
pKd [3]: > 9.70
pIC50 [4]: < 4.30
inhibition at 10 µM [5]: < 50%

SMILES: CNc1cc(Nc2cccnc2OCCOC)nc2c(C(=O)NC3CCC3)cnn12 [I-219]
inhibition at 10 µM [1]: < 50%
pIC50 [2]: > 7.00
pKd [3]: > 9.70
pIC50 [4]: < 4.90
inhibition at 10 µM [5]: < 50%

SMILES: CNc1cc(Nc2cccnc2OCCOC)nc2c(C(=O)N[C@H]3C[C@H]3F)cnn12 [I-220]
inhibition at 10 µM [1]: < 50%
pIC50 [2]: > 7.00
pKd [3]: > 9.70
pIC50 [4]: < 4.90
inhibition at 10 µM [5]: < 50%
